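96-well plates; 48 h exposure; 5 concentrations. Endpoints by linear interpolation between flanking doses. Not reached: highest tested concentration assigned. At the GI50, growth is halved. TGI is the concentration that stops growth completely.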

Our source for the GI50 and TGI values is PubChem BioAssay (NCI).

Test systems include T-47D breast; DU-145 prostate; PC-3 prostate; HS 578T breast; MCF7 breast; SR leukemia; MDA-MB-231 breast; DMS 273 small cell lung; DMS 114 small cell lung; M19-MEL melanoma; 786-0 renal; MDA-N; BT-549 breast.
Common to all, as to test: inhibition of tumour cell growth, NCI panel, 48 h

In the case of `COc1ccc(-c2nn(-c3ccc(NC(=O)Nc4ccc(Cl)c(Cl)c4)cc3)cc2-c2ccncc2)cc1Cl`, the GI50 in the assay with T-47D breast is 3.24 µM; in the assay with DU-145 prostate it was 3.97 µM; with PC-3 prostate, 1.29 µM; with HS 578T breast it was 1.42 µM; in the assay with MCF7 breast, 2.37 µM; with SR leukemia, 2.65 µM. In addition, the GI50 with MDA-MB-231 breast was 1.5 µM. Further, the TGI is more than 100 µM in the assay on T-47D breast; more than 100 µM in the assay on DU-145 prostate; 14.4 µM in the assay with PC-3 prostate; 7.63 µM in the assay on HS 578T breast; 9.34 µM with MCF7 breast; 35.6 µM with SR leukemia. In addition, the TGI in the assay on MDA-MB-231 breast came out at 4.33 µM.

`Nc1cc(S(=O)(=O)O)cc2cc(S(=O)(=O)O)c(N=Nc3ccc(-c4ccc(N=Nc5c(S(=O)(=O)O)cc6cc(S(=O)(=O)O)cc(N)c6c5O)cc4)cc3)c(O)c12`: the TGI in the assay on DMS 273 small cell lung, with DMS 114 small cell lung, in the assay with MCF7 breast and with M19-MEL melanoma was more than 100 µM throughout.

With `C/C1=N\NC(=O)c2ccccc2C(=O)N/N=C(\C)c2cccc1n2.O=[N+]([O-])[O-].[Zn+2]`, the TGI in the assay on DMS 114 small cell lung and in the assay with 786-0 renal was more than 100 µM each time.

For the compound `O=Nc1ccc(O)c2ncccc12`, the TGI worked out at 33.1 µM with T-47D breast; 65.9 µM with DU-145 prostate; 10.3 µM with DMS 273 small cell lung; 12.4 µM in the assay with DMS 114 small cell lung; 29.8 µM with PC-3 prostate; 14.7 µM in the assay on 786-0 renal. Also, the TGI in the assay with MDA-N was 6.01 µM; in the assay on HS 578T breast, 3.66 µM; in the assay with MCF7 breast, 16.6 µM; with SR leukemia, more than 100 µM; in the assay with M19-MEL melanoma, 16.4 µM; in the assay on MDA-MB-231 breast, 57.3 µM. Moreover, the TGI with BT-549 breast stood at 23 µM.

As for `O=C(O)CC(C(=O)O)C1c2ccccc2-c2ccccc21` (stereo not given), the TGI in the assay with T-47D breast, in the assay on DU-145 prostate, in the assay with PC-3 prostate, with 786-0 renal, in the assay with MDA-N and with HS 578T breast was more than 100 µM each time. Also, the TGI with MCF7 breast, with SR leukemia, with MDA-MB-231 breast and in the assay with BT-549 breast was more than 100 µM each time.

Consider `CC(C)=CCc1c(O)ccc2c1OC1c3ccc(O)c(CC=C(C)C)c3OCC21` (stereo not given), for which the TGI stood at 28.2 µM with DMS 273 small cell lung, 26.3 µM in the assay with DMS 114 small cell lung, 16.9 µM with MCF7 breast and 24.2 µM with M19-MEL melanoma.

With `O=[N+]([O-])c1ccc(/C=N\Nc2ccc([N+](=O)[O-])cn2)cc1`, the TGI in the assay with T-47D breast, in the assay with DU-145 prostate, in the assay with PC-3 prostate, in the assay with 786-0 renal, in the assay on MDA-N and in the assay with HS 578T breast was more than 100 µM in each case. In addition, the TGI in the assay with MCF7 breast, in the assay with MDA-MB-231 breast and with BT-549 breast was more than 100 µM throughout.

For the compound `c1ccc(-n2cnnc2-c2nsc3ccccc23)cc1`, the TGI in the assay with DMS 273 small cell lung and with M19-MEL melanoma was more than 100 µM each time.

Take `COc1cc(C(C)(C)C)cc(OC)c1C(O)(c1c(OC)cc(C(C)(C)C)cc1OC)c1c(OC)cc(C(C)(C)C)cc1OC`: the GI50 in the assay with HS 578T breast is 0.711 µM.

As to `CN1CCC(C(=O)NNc2ccccc2)CC1`, the TGI with DMS 273 small cell lung is more than 31.3 µM; with DMS 114 small cell lung it was more than 87.2 µM; in the assay with 786-0 renal, more than 100 µM; in the assay on SR leukemia it was more than 100 µM; in the assay on M19-MEL melanoma it was more than 79.7 µM.

Regarding `COc1ccc2[nH]c3c([N+](=O)[O-])ccc(Cl)c3c(=O)c2c1`, the TGI was more than 84.7 µM in the assay on T-47D breast; more than 100 µM with DU-145 prostate; 52.1 µM in the assay on PC-3 prostate; 33.7 µM in the assay on 786-0 renal; more than 55.6 µM in the assay on MDA-N; more than 100 µM with HS 578T breast. The TGI with MCF7 breast was more than 84.8 µM; in the assay with MDA-MB-231 breast, 32.8 µM; in the assay on BT-549 breast, 32.1 µM.

`N=C(N)c1ccc(-c2ccc(-c3cncc4ccccc34)s2)cc1F`: in the assay on DU-145 prostate, the GI50 was 1.86 µM and the TGI was 3.45 µM. Besides, in the assay with MDA-MB-231 breast, the GI50 was 1.4 µM and the TGI stood at 3.12 µM.

On to `C=C1C(=O)OC2/C=C(\C)C(=O)CC3OC(C)(C)OC3(C)CC(OC(=O)/C(C)=C/C)C12` (stereo not given), for which the TGI was more than 64.6 µM with T-47D breast; 45.1 µM in the assay on DU-145 prostate; 59 µM in the assay with PC-3 prostate; more than 47.9 µM in the assay on 786-0 renal; more than 80.5 µM with MDA-N; more than 100 µM in the assay with HS 578T breast. For the same compound, the results for the TGI in the assay with MCF7 breast, with MDA-MB-231 breast and with BT-549 breast were more than 47.1 µM, 58 µM and 26.8 µM, respectively.

`Cc1ccc(P(c2ccc(C)cc2)c2ccc(C)cc2)cc1`: the TGI was more than 100 µM in the assay with T-47D breast; 40.1 µM in the assay with DU-145 prostate; more than 100 µM in the assay on PC-3 prostate; 55.8 µM in the assay with MDA-N; 57 µM in the assay with HS 578T breast; more than 100 µM in the assay on MCF7 breast. For the same compound, the results for the TGI in the assay with MDA-MB-231 breast and with BT-549 breast were 67.6 µM and more than 100 µM, respectively.

With `OC(Cc1ccccc1)(Cc1ccccc1)c1ccccc1`, the TGI in the assay on T-47D breast was more than 100 µM; in the assay on DU-145 prostate it was 32.3 µM; in the assay on PC-3 prostate, 34.4 µM; in the assay with 786-0 renal, 29.6 µM; in the assay with MDA-N, 29.2 µM; with SR leukemia, 80.8 µM. In addition, the TGI in the assay with MDA-MB-231 breast is 33.8 µM; in the assay with BT-549 breast, 36.3 µM.

On to `C=C(C)C(=O)OC1C(C(C)CCCO)=C(CO)CC2OC(=O)C(=C)C21` (stereo not given), for which the TGI was 45.5 µM in the assay with T-47D breast; 27.8 µM in the assay with DU-145 prostate; 76.6 µM in the assay on PC-3 prostate; 25.9 µM in the assay with 786-0 renal; 37.7 µM in the assay with MDA-N; more than 100 µM with HS 578T breast. Besides, the TGI in the assay on MCF7 breast is 24.1 µM; in the assay on SR leukemia, more than 100 µM; in the assay on MDA-MB-231 breast, 36 µM; in the assay with BT-549 breast, 34.7 µM.

`CC(C)(C)C1(c2ccc(C3(c4ccccc4)Oc4ccccc4S3)[nH]2)Oc2ccccc2S1` (stereo not given): the TGI in the assay with DMS 273 small cell lung, in the assay on DMS 114 small cell lung and in the assay with M19-MEL melanoma was more than 100 µM each time.

On to `C=C1CC23CCC4C(C)(C(=O)O)CCCC4(C)C2CCC1C3` (stereo not given), for which the TGI with T-47D breast, in the assay with DU-145 prostate, in the assay on PC-3 prostate, in the assay on 786-0 renal, in the assay with MDA-N and with HS 578T breast was more than 100 µM each time. The TGI in the assay with MCF7 breast was more than 100 µM; in the assay on SR leukemia, 90.9 µM; in the assay on MDA-MB-231 breast it was more than 100 µM; in the assay with BT-549 breast, more than 100 µM.
